The source of these data is patent US8592451B2, “Reversible nondepolarizing neuromuscular blockade agents and methods for their use” (Cornell University, priority 2009, dated 2013).

A value given as a limit tells only on which side of the number the result lay.

Data set [1] in a line: Stability of the CW 002-cysteine adduct (HPLC). It is filed as physicochemical. On the procedure:
[drawing 58] was prepared in one step from CW 002. CW 002 was dissolved in deionized water to give a solution concentration of 37 mg/ml at a pH of 6.6. A 5 mol % excess of L-cysteine hydrochloride monohydrate was added in one portion at ambient temperature to give a solution pH of 2. Stirring for 12 hours gave complete consumption of CW 002, as observed by HPLC. CW002-Cys was isolated as an off-white solid after reaction mixture lyophilization. Product purity was estimated at 95% by HPLC peak area %.
At low pH and temperature, one new peak was formed on L-cysteine addition as the peak corresponding to CW 002 diminished. This new peak corresponds to the initial peak observed in the in vitro L-cysteine adduction experiments at 37° C. and a pH of 7.4. At elevated temperature and pH, such as conditions used to mimic in vivo reactivity, this initial peak quickly diminishes over time (t½˜60 min) while two new adduct peaks arise secondary to alkaline hydrolysis of the adduct. However, at ambient temperature and a pH of 2, the initial adduct is stable for >24 hours, allowing for isolation of the intermediate.

The subject of data set [2] is twitch of the extensor digitorum. Put plainly: Neuromuscular blocking potency and duration in anesthetized rhesus monkeys. The format is in vivo, rhesus monkeys (Macaca mulatta). The following applies: for Duration (± SD/SEM), from injection to recovery of twitch to 95% of baseline: spontaneous recovery. Here is the method:
Experiments were approved by the Institutional Animal Care and Use Committee of Weill Medical College of Cornell University (New York, N.Y.) and of Albany Medical College (Albany, N.Y.), where the studies were conducted. A colony of 10 adult male monkeys (Macaca mulatta) weighing 8-18 kg was studied at ˜6 week intervals. Animals were housed and cared for in accordance with the Guide for Care and Use of Laboratory Animals (National Research Council, Washington, D.C.). They were fed a standard Old World monkey diet, enriched with fruits and vegetables, and other dietary novelties and were followed throughout the study to verify normal health by physical examination, body weight, and clinical laboratory studies (Complete Blood Count, Blood Urea Nitrogen and creatinine, and liver function tests).
On the day of each study, monkeys received ketamine (7-10 mg/kg i.m.) followed by tracheal intubation under topical anesthesia with 4% lidocaine. Ventilation was controlled at 10 mL/kg and 20 breaths/min with isoflurane (1.0-2.0%) and N2O/O2 (2:1 mixture). Ringers lactate was administered at ˜10 ml kg^−1 h^−1. Arterial pressure was monitored from a femoral, superficial tibial, or radial (22 gauge) cannula. Heart rate was measured by tachograph from the arterial pulse wave. Core temperature was kept at 36.5-38.0° C. by warming blankets. Electrocardiogram and pulse oximetry were monitored continuously.
Needle electrodes (25 gauge) transmitting square-wave pulses of 0.2 msec duration at supramaximal voltage which were generated by a Grass S-88 stimulator (Grass Instruments, Quincy, Mass.) were placed at the peroneal nerve at the knee to elicit twitch responses of the extensor digitorum of the foot at 0.15 Hz. A small slip (10-20%) of the tendon was dissected free under sterile technique and tied to a Grass FT 10 force transducer (Grass Instruments, Quincy, Mass.) at a baseline tension of 50 gm. Train-of four stimulation (TOF, 2 Hz for 2 sec) was interposed at appropriate points, especially 1-2 min prior to NMBA dosing and following recovery of twitch to 95% of baseline, where TOF was subsequently evaluated every 1-2 min.
Recordings of circulatory and neuromuscular data were made on a Grass 7B polygraph (Grass Instruments). A baseline period of 15-20 min was allowed for stabilization of recordings prior to dosing.^2
Dose-response curves for twitch blockade by gantacurium, CW 002, CW 011, cisatracurium, CW002-Cys, NB 938-69, NB 1064-81, NB 802-17 (CW 001), NB 832-65, and NB 1163-79, structures of which are all shown above, were generated as follows. […] Successive doses were separated by at least three estimated half lives beyond complete recovery of the previous dose to TOF of 110-120%, which is normal for these monkeys. Only the first one or two doses yielding 5 to 99% blockade were included from any single experiment for computation of dose-response data.
Comparative studies of spontaneous recovery versus antagonism/reversal were done at least 3 estimated half-lives following dose-response studies.
ED 50 and ED 95 were computed from the regression of log dose vs. the logit of percentage blockade of twitch.
CW002-Cys, the L-cysteine adduct of CW 002, was available in limited quantity and was administered in cumulative fashion to three animals to compare approximate potency and duration of effect versus its parent compound CW 002.

Data set [3] deals with twitch contractions of the extensor digitorum muscle. Put plainly: Rhesus monkey anesthesia bioassay for potency and duration (substituent and stereochemical comparison, preliminary studies). The format is in vivo. The following applies: rhesus monkeys. On the procedure:
Two stereoisomeric structures, CW 002 (R-trans, R-trans), and CW 003 (R-cis, R-cis) were tested in the rhesus monkey anesthesia bioassay for potency and duration. A third compound, CW 001 (R-trans, R-trans) bearing an additional methoxyl group on each of the two benzyl groups in the molecule, was also tested.
Rhesus monkeys were anesthetized with ketamine (7.5 mg/Kg) given intramuscularly or intravenously. Anesthesia was maintained with a mixture of isoflurane (1.5%), nitrous oxide (60%) and oxygen (40%). The common peroneal nerve was stimulated supramaximally with square wave pulses of 0.2 m sec duration at a rate of 0.15 Hz. Twitch contractions were recorded via the tendon of the extensor digitorum muscle.
In all animals, the trachea was intubated and ventilation was controlled at 12-15 ml/kg, 18-24 breaths per minute. A peripheral vein and artery were cannulated for drug administration and for recording of arterial pressure, respectively. In preliminary studies a neuromuscular blocking agent having one of the following structures was administered intravenously.

With `COc1ccc(C[C@@H]2c3cc(OC)c(OC)cc3CC[N@@+]2(C)CCCOC(=O)CC(SC[C@@H](N)C(=O)O)C(=O)OCCC[N@+]2(C)CCc3cc(OC)c(OC)cc3[C@H]2Cc2ccc(OC)c(OC)c2)cc1OC` (stereo partly shown) [CW002-Cys], the half-life in data set [1] (37° C., pH 7.4, read-out: t½ of initial adduct peak (alkaline hydrolysis of the adduct)) is roughly 1 h. Moreover, the “time the initial adduct is stable” value in data set [1] (ambient temperature, pH of 2) was greater than 24 h. Besides, in data set [2] (following cumulative dosage, three animals), the “Duration, spontaneous recovery (times approximate)” value is recorded as ~30-35^+++ min.

With `COc1cc2c(cc1OC)[C@@H](Cc1cc(OC)c(OC)c(OC)c1)[N@+](C)(CCCOC(=O)/C=C/C(=O)OCCC[N@+]1(C)CCc3cc(OC)c(OC)cc3[C@H]1Cc1cc(OC)c(OC)c(OC)c1)CC2` [NB 802-17], the “Duration (± SD/SEM), from injection to recovery of twitch to 95% of baseline” value was found to be 35.0 ± 15.0 min in data set [2] (administered dose 0.03 mg/kg) and 49.4 ± 5.8 min in data set [2] (administered dose 0.10 mg/kg). In addition, the “ED 95 (± SD/SEM)” value in data set [2] (twitch blockade, monkeys under isoflurane, twitch at 0.15 Hz, calculated from dose-response curve) is listed as 0.033 ± 0.005 mg/kg. For the same compound, in data set [3], the “reversibility of effect by cysteine or glutathione” value was “reversible”. Besides, the “Potency (ED95 mg/kg)” value in data set [3] (intravenously, preliminary studies) is on record as 0.04 mg/kg. In data set [3] (preliminary studies, 4X ED95, head prints no unit (column beside it: minutes)), the “Duration at 4X ED95” value is 50-60. In addition, the “Duration (minutes), from injection to 95% twitch recovery” value in data set [3] (preliminary studies, dose not printed (beside ED95 column)) lay in the range of 30 to 40 min.
